ChEMBL document CHEMBL4138138, “Addressing the Metabolic Stability of Antituberculars through Machine Learning” (ACS Med Chem Lett, 2017)
In brackets after ≈: the same amount, converted by molar mass.

How the values were obtained:
[1] = system: Mycobacterium tuberculosis; test: Antimycobacterial activity against Mycobacterium tuberculosis H37Rv measured after 1 week by resazurin assay; type: functional; conditions: 168 h
[2] = Cytotoxicity against African green monkey Vero cells assessed as reduction in cell viability after 72 hrs by MTS/PMS assay; type: cell-based; conditions: chlorocebus sabaeus
[3] = Intrinsic clearance in mouse liver microsomes; type: ADME, microsome; conditions: read-out: CLH
[4] = Half life in mouse liver microsomes; type: ADME, microsome
[5] = Selectivity index, ratio of CC50 for African green monkey Vero cells to MIC for Mycobacterium tuberculosis H37Rv; type: toxicity; conditions: read-out: Selectivity Index

| Compound | MIC [1] | CC50 at 72 h [2] | microsomal CLint [3] | half-life [4] | selectivity ratio [5] |
| --- | --- | --- | --- | --- | --- |
| CC(C)(C)C1CCc2c(sc3nc(SCc4ccc5c(c4)OCO5)nc(N)c23)C1 (configuration not stated) | > 200 µg/mL | > 50 µg/mL | 10.8 µL/min/mg | 64.2 min |  |
| COc1ccc([N+](=O)[O-])cc1CSc1nc(N)c2c3c(sc2n1)CC(C(C)(C)C)CC3 (configuration not stated) | > 200 µg/mL | 12.5 µg/mL (≈ 27.3 µM) | 7.9 µL/min/mg | 87.7 min |  |
| CCOC(=O)CSc1nc(N)c2c3c(sc2n1)CC(C(C)(C)C)CC3 (configuration not stated) | 0.19 to 0.38 µg/mL (≈ 0.501 to 1 µM) | 45 µg/mL (≈ 119 µM) | > 1390 µL/min/mg | < 1 min | 120 to 240 |
| CC(C)(C)C1CCc2c(sc3nc(SCc4ccc([N+](=O)[O-])cc4)nc(N)c23)C1 (configuration not stated) | > 200 µg/mL | > 50 µg/mL | 20.1 µL/min/mg | 34.3 min |  |
| CC(C)(C)C1CCc2c(sc3nc(SCc4ccc(C(=O)O)cc4[N+](=O)[O-])nc(N)c23)C1 (configuration not stated) | 12.5 to 25 µg/mL (≈ 26.4 to 52.9 µM) | > 50 µg/mL | 5.8 µL/min/mg | 120 min |  |
| Cc1nc(CSc2nc(N)c3c4c(sc3n2)CC(C(C)(C)C)CC4)sc1C (configuration not stated) | 100 to 200 µg/mL (≈ 239 to 478 µM) | 1.6 µg/mL (≈ 3.82 µM) | 31.9 µL/min/mg | 21.7 min |  |
| CC(C)(C)C1CCc2c(sc3nc(SCc4cccc([N+](=O)[O-])c4)nc(N)c23)C1 (configuration not stated) | 10 µg/mL (≈ 23.3 µM) | > 200 µg/mL | 14.6 µL/min/mg | 47.5 min | > 20 |
| Cc1cc(CSc2nc(N)c3c4c(sc3n2)CC(C(C)(C)C)CC4)no1 (configuration not stated) |  |  |  | 19 min |  |
| NNC(=O)c1ccncc1 [ISONIAZID] | 0.039 µg/mL (≈ 0.284 µM) |  |  |  |  |
| Cc1cccc(CSc2nc(N)c3c4c(sc3n2)CC(C(C)(C)C)CC4)n1 (configuration not stated) | > 200 µg/mL | 25 µg/mL (≈ 62.7 µM) | 40.8 µL/min/mg | 17 min |  |
| Cn1nccc1CSc1nc(N)c2c3c(sc2n1)CC(C(C)(C)C)CC3 (configuration not stated) | 10 µg/mL (≈ 25.8 µM) | 100 µg/mL (≈ 258 µM) | 11.4 µL/min/mg | 60.8 min | 10 |
| Cc1ccc(CSc2nc(N)c3c4c(sc3n2)CC(C(C)(C)C)CC4)s1 (configuration not stated) | > 200 µg/mL | 12.5 µg/mL (≈ 31 µM) | 21.8 µL/min/mg | 31.8 min |  |
| CC(C)(C)C1CCc2c(sc3nc(SCc4ccnn4C4CCCCO4)nc(N)c23)C1 (configuration not stated) | 25 µg/mL (≈ 54.6 µM) | 6.2 µg/mL (≈ 13.5 µM) | 11.5 µL/min/mg | 60.3 min |  |
| CC(C)(C)C1CCc2c(sc3nc(SCc4cc([N+](=O)[O-])ccc4O)nc(N)c23)C1 (configuration not stated) | 200 µg/mL (≈ 450 µM) | 50 µg/mL (≈ 112 µM) | 11.9 µL/min/mg | 58.2 min |  |
| Cc1ccc(CSc2nc(N)c3c4c(sc3n2)CC(C(C)(C)C)CC4)o1 (configuration not stated) | 200 µg/mL (≈ 516 µM) | 3.1 µg/mL (≈ 8 µM) | 35.1 µL/min/mg | 19.7 min |  |
| CC(C)(C)C1CCc2c(sc3nc(SCc4ccc(C(=O)O)cc4)nc(N)c23)C1 (configuration not stated) | 25 to 50 µg/mL (≈ 58.5 to 117 µM) | 50 µg/mL (≈ 117 µM) | 7.3 µL/min/mg | 95 min |  |
| CC(C)(C)C1CCc2c(sc3nc(SCc4nccs4)nc(N)c23)C1 (configuration not stated) |  |  |  | 66.6 min |  |
